Numbers after ± are expanded uncertainties.
How the values were obtained:
[1] = Molar enthalpy of transition or fusion; conditions: Crystal; DSC
[2] = Crystal; DTA

Molar enthalpy of transition or fusion [1]: 9.05 ± 0.263 kcal/mol | Normal melting temperature [2]: 160.66 ± 1.1 °C
Compound: CC(C)(C)[C@H](O)[C@H](Cc1ccc(Cl)cc1)n1cncn1 [2S,3S-Paclobutrazol]

— the NIST ThermoML archive (doi:10.1016/j.jct.2016.09.038)
